# Experimental data taken from ChEMBL document CHEMBL1141364, “Design and synthesis of indane-ureido-thioisobutyric acids: A novel class of PPARalpha agonists” (Bioorg Med Chem Lett, 2007).
# What was measured:
# [1] = biological target: T1, Peroxisome proliferator-activated receptor alpha (Rattus norvegicus, UniProt P37230); assay: Agonist activity at rat PPARalpha in rat H4IIE cells assessed as gene induction; type: functional, cell-based
# T1 sequence (P37230 whole entry): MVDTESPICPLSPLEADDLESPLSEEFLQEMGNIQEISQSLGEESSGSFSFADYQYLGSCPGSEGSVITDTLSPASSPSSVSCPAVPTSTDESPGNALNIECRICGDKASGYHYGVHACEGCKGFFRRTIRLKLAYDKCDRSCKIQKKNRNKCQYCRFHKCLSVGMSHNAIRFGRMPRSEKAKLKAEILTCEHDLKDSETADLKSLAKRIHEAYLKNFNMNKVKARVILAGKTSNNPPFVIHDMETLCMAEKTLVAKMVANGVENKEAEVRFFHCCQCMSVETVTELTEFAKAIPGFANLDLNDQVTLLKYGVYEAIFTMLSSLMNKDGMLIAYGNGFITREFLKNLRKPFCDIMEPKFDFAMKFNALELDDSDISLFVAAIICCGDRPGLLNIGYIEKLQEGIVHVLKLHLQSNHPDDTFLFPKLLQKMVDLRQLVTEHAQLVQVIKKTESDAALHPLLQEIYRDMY
# [2] = Metabolic stability in human liver microsomes at 5 uM; type: ADME, Microsome
# [3] = Cmax in Sprague-Dawley rat at 3 mg/kg, iv or 30 mg/kg, po; type: ADME, organism-based; settings: in vivo
# [4] = AUC in Sprague-Dawley rat at 3 mg/kg, iv or 30 mg/kg, po; type: ADME, organism-based; settings: plasma
# [5] = Half life at terminal phase in Sprague-Dawley rat at 30 mg/kg, po; type: ADME, organism-based; parameters: dose 30 mg/kg, route oral; settings: in vivo, read-out: beta t1/2 (converted)
# [6] = Total clearance in Sprague-Dawley rat at 3 mg/kg, iv or 30 mg/kg, po; type: ADME, organism-based; settings: in vivo
# [7] = Oral bioavailability in Sprague-Dawley rat at 30 mg/kg; type: ADME, organism-based; settings: in vivo
# [8] = tested on: Mus musculus; assay: Reduction in body weight of db/db mouse at 1 mg/kg, po after 11 days; parameters: scale not given: the % may be the effect or the level left
# [9] = tested on: Mus musculus; assay: Reduction in glucose levels in db/db mouse plasma at 1 mg/kg, po after 11 days; parameters: scale not given: the % may be the effect or the level left
# [10] = tested on: Mus musculus; assay: Reduction in insulin levels in db/db mouse plasma at 1 mg/kg, po after 11 days; parameters: scale not given: the % may be the effect or the level left
# [11] = tested on: Mus musculus; assay: Reduction in triglyceride levels in db/db mouse plasma at 1 mg/kg, po after 11 days; parameters: scale not given: the % may be the effect or the level left
# [12] = biological target: T2, Peroxisome proliferator-activated receptor alpha (Homo sapiens, UniProt Q07869); assay: Agonist activity at PPARalpha expressed in HEK293 cells by GAL4 transactivation assay; type: functional, cell-based
# T2 sequence (Q07869 whole entry): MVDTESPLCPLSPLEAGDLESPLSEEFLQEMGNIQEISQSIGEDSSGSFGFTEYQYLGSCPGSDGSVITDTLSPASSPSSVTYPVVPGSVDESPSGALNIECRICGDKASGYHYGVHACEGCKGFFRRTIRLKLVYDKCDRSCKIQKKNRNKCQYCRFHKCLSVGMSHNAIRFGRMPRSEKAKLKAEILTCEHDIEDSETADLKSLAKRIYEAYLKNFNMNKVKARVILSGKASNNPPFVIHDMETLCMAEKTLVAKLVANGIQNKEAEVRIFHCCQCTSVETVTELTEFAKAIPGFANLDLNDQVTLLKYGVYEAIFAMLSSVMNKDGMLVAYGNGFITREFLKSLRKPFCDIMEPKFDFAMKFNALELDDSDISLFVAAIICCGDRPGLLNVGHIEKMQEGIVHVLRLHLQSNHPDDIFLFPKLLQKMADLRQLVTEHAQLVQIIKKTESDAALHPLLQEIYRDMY
# [13] = biological target: T3, Peroxisome proliferator-activated receptor delta (Homo sapiens, UniProt Q03181); assay: Agonist activity at PPARdelta expressed in HEK293 cells by GAL4 transactivation assay; type: functional, cell-based
# T3 sequence (Q03181 whole entry): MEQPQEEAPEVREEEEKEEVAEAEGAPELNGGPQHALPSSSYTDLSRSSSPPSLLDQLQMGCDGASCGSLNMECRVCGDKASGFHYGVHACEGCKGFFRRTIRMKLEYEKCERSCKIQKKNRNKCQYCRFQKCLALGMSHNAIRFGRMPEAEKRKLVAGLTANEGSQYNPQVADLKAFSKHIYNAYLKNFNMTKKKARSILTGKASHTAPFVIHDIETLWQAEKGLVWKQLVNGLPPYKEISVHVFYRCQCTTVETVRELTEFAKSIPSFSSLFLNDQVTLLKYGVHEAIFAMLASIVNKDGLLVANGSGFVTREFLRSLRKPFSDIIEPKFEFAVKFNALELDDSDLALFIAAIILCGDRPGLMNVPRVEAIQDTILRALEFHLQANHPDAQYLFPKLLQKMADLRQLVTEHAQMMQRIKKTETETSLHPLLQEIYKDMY
# [14] = biological target: T4, Peroxisome proliferator-activated receptor gamma (Homo sapiens) (UniProt P37231); assay: Agonist activity at PPARgamma expressed in HEK293 cells assessed as aP2 gene induction relative to BRL-49653; type: functional, cell-based
# T4 sequence (whole entry): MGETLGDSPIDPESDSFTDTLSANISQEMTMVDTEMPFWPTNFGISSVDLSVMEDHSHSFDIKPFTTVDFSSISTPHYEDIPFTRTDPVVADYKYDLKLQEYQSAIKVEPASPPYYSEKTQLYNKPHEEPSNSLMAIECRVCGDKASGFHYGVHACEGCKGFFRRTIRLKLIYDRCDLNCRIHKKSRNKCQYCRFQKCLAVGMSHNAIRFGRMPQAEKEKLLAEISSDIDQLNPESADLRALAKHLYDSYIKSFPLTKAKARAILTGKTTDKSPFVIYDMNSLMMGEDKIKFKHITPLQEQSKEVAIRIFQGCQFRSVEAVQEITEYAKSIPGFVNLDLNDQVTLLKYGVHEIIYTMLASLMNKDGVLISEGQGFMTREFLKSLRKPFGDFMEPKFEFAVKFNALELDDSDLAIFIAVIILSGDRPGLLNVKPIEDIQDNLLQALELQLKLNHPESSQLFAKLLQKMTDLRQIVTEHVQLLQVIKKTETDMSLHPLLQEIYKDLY
# [15] = biological target: T5, Peroxisome proliferator-activated receptor gamma (Homo sapiens, UniProt P37231)
# T5 sequence (P37231 whole entry): T4 sequence (whole entry)
# Description: Agonist activity at PPARgamma expressed in HEK293 cells by GAL4 transactivation assay
# [16] = tested on: Mus musculus; assay: Reduction in insulin levels in db/db mouse plasma at 0.1 mg/kg, po after 11 days; parameters: scale not given: the % may be the effect or the level left
# [17] = tested on: Mus musculus; assay: Reduction in glucose levels in db/db mouse plasma at 0.1 mg/kg, po after 11 days; parameters: scale not given: the % may be the effect or the level left
# [18] = tested on: Mus musculus; assay: Reduction in triglyceride levels in db/db mouse plasma at 0.1 mg/kg, po after 11 days; parameters: scale not given: the % may be the effect or the level left
Structure (SMILES),EC50 [1],half-life at 5 µM [2],Cmax [3],AUC [4],half-life [5],clearance [6],bioavailability [7],Activity [8],Activity [9],Activity [10],Activity [11],EC50 [12],EC50 [13],Activity [14],EC50 [15],Activity [16],Activity [17],Activity [18]
CCN(C(=O)Nc1ccc(OC(F)(F)F)cc1)C1Cc2ccc(SC(C)(C)C(=O)O)cc2C1 (centres undefined),33 nM,1.67 h,39300 ng/mL,290 µg·h/mL,4 h,0.1 mL/min/kg,59%,59%,60%,53%,56%,–,–,–,–,–,–,–
CCN(C(=O)Nc1ccc(OC(F)(F)F)cc1)[C@@H]1Cc2ccc(SC(C)(C)C(=O)O)cc2C1,2 nM,–,–,–,–,–,–,–,–,–,–,170 nM,2100 nM,3.8%,> 10000 nM,49%,16%,43%
